Data reported in patent publication US12421212B2, “Substituted benzenecarboxamides as IL-17A modulators” (DiCE Alpha, Inc., priority 2019, dated 2025).

What follows are compounds tested against T1, IL-17A/A (Homo sapiens, UniProt Q16552) (assay: IL-17A/A HEK-Blue Cell Assay). Conditions: HEK-Blue IL-17A reporter cell line, SEAP readout at A630, 20 hours incubation with IL-17A/A; top concentration 10 uM, 1 uM or 0.3 uM.
T1 construct: purchased Genscript Z03228
T1 sequence (Q16552 24-155): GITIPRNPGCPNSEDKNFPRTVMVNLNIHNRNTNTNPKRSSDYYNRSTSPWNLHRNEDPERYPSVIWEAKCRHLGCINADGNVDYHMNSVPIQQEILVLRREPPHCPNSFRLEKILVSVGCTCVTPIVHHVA
Assay type: cell-based

Compound | IL-17A/A inhibition (pIC50)
CCn1nccc1C(=O)N[C@H](C(=O)Nc1ccc([C@H](C)[C@@H](NC(=O)c2cnsc2)C(=O)N2CCN(C)CC2)cc1F)[C@H]1CC[C@H](C)CC1 [Compound 487] | B (8>B≥7 as B)

Same assay, conditions: HEK-Blue IL-17A reporter cell line, SEAP readout at A630, 20 hours incubation with IL-17A/A; top concentration 10 uM, 1 uM or 0.3 uM; read-out: IL-17A/A inhibition (pIC50) (converted)

Compound | IC50 [nM]
CCn1nccc1C(=O)N[C@H](C(=O)Nc1ccc([C@H](C)[C@@H](NC(=O)[C@H](C)CC(=O)O)C(=O)N2CCN(C)CC2)cc1F)[C@H]1CC[C@H](C)CC1 [Compound 474] | 10 to 100
CCn1nccc1C(=O)N[C@H](C(=O)Nc1ccc([C@H](C)[C@@H](NC(=O)[C@H](C)OC)C(=O)N2CCN(C)CC2)cc1F)[C@H]1CC[C@H](C)CC1 [Compound 476] | < 10
CCn1nccc1C(=O)N[C@H](C(=O)Nc1ccc([C@H](C)[C@@H](NC(=O)[C@@H]2CCCO2)C(=O)N2CCN(C)CC2)cc1F)[C@H]1CC[C@H](C)CC1 [Compound 477] | 10 to 100
CCn1nccc1C(=O)N[C@H](C(=O)Nc1ccc([C@H](C)[C@@H](NC(=O)COC)C(=O)N2CCN(C)CC2)cc1F)[C@H]1CC[C@H](C)CC1 [Compound 478] | 10 to 100
CCn1nccc1C(=O)N[C@H](C(=O)Nc1ccc([C@H](C)[C@@H](NC(=O)C(C)(F)F)C(=O)N2CCN(C)[C@@H](C)C2)cc1F)[C@H]1CC[C@H](C)CC1 [Compound 479] | < 10
CCn1nccc1C(=O)N[C@H](C(=O)Nc1ccc([C@H](C)[C@@H](NC(=O)C(C)(F)F)C(=O)N2CCN(C)[C@H](C)C2)cc1F)[C@H]1CC[C@H](C)CC1 [Compound 480] | < 10
CCn1nccc1C(=O)N[C@H](C(=O)Nc1ccc([C@H](C)[C@@H](NC(=O)C(F)(F)CC)C(=O)N2CCN(C)[C@H](C)C2)cc1F)[C@H]1CC[C@H](C)CC1 [Compound 481] | < 10
CCn1nccc1C(=O)N[C@H](C(=O)Nc1ccc([C@H](C)[C@@H](NC(=O)C2(F)CCC2)C(=O)N2CCN(C)[C@H](C)C2)cc1F)[C@H]1CC[C@H](C)CC1 [Compound 482] | 10 to 100
CCn1nccc1C(=O)N[C@H](C(=O)Nc1ccc([C@H](C)[C@@H](NC(=O)OC)C(=O)N2CCN(C)CC2)cc1F)[C@H]1CC[C@H](C)CC1 [Compound 483] | 10 to 100
CCn1nccc1C(=O)N[C@H](C(=O)Nc1ccc([C@H](C)[C@@H](NC(=O)OC2CC2)C(=O)N2CCN(C)CC2)cc1F)[C@H]1CC[C@H](C)CC1 [Compound 484] | 10 to 100
CCn1nccc1C(=O)N[C@H](C(=O)Nc1ccc([C@H](C)[C@@H](NS(=O)(=O)CC)C(=O)N2CCN(C)CC2)cc1F)[C@H]1CC[C@H](C)CC1 [Compound 485] | 10 to 100
CCn1nccc1C(=O)N[C@H](C(=O)Nc1ccc([C@H](C)[C@@H](NC(=O)c2ccnn2C2CCN(C)CC2)C(=O)N2CCN(C)CC2)cc1F)[C@H]1CC[C@H](C)CC1 [Compound 486] | 10 to 100
CCn1nccc1C(=O)N[C@H](C(=O)Nc1ccc([C@H](C)[C@@H](NC(=O)N(C)C2CC2)C(=O)N2CCN(C)CC2)cc1F)[C@H]1CC[C@H](C)CC1 [Compound 488] | < 10
CCc1nonc1C(=O)N[C@H](C(=O)Nc1ccc([C@H](C)[C@@H](NC(=O)c2nonc2C)C(=O)N2CCN(C)CC2)cc1F)[C@H]1CC[C@H](C)CC1 [Compound 489] | 10 to 100
CCc1nonc1C(=O)N[C@H](C(=O)Nc1ccc([C@H](C)[C@@H](NC(=O)c2ccnn2C)C(=O)N2CCN(C)CC2)cc1F)[C@H]1CC[C@H](C)CC1 [Compound 490] | 10 to 100
CCc1nonc1C(=O)N[C@H](C(=O)Nc1ccc([C@H](C)[C@@H](NC(=O)[C@H](C)F)C(=O)N2CCN(C)CC2)cc1F)[C@H]1CC[C@H](C)CC1 [Compound 491] | 10 to 100
CCc1nonc1C(=O)N[C@H](C(=O)Nc1ccc([C@H](C)[C@@H](NC(=O)CC2CC2)C(=O)N2CCN(C)CC2)cc1F)[C@H]1CC[C@H](C)CC1 [Compound 492] | < 10
CCc1nonc1C(=O)N[C@H](C(=O)Nc1ccc([C@H](C)[C@@H](NC(=O)[C@H](C)CC(=O)O)C(=O)N2CCN(C)CC2)cc1F)[C@H]1CC[C@H](C)CC1 [Compound 493] | 10 to 100
